Earlier results on four compounds are cited in US20220241275A1, “TARGETED TREATMENT OF CANCERS WITH DYSREGULATED FIBROBLAST GROWTH FACTOR RECEPTOR SIGNALING” (G1 Therapeutics, Inc., priority 2019, published 2022).

As a reminder, the IC50 is the concentration at which inhibition is half-maximal.

The structures appear in SMILES notation. Where two headings read alike, the source gives them in different places.

The test system of data set [1] is FGFR1-amplified squamous NSCLC and FGFR3-mutant urothelial cancer. The note with it: doses >=100 mg, phase I dose escalation trial.
Another data set concerns the target VEGFR2 (Homo sapiens, UniProt P35968). The note with it: cell-free assays.
The target of the next data set is FGFR4 (Homo sapiens, UniProt P22455).
Chain of FGFR4 (P22455 22-802): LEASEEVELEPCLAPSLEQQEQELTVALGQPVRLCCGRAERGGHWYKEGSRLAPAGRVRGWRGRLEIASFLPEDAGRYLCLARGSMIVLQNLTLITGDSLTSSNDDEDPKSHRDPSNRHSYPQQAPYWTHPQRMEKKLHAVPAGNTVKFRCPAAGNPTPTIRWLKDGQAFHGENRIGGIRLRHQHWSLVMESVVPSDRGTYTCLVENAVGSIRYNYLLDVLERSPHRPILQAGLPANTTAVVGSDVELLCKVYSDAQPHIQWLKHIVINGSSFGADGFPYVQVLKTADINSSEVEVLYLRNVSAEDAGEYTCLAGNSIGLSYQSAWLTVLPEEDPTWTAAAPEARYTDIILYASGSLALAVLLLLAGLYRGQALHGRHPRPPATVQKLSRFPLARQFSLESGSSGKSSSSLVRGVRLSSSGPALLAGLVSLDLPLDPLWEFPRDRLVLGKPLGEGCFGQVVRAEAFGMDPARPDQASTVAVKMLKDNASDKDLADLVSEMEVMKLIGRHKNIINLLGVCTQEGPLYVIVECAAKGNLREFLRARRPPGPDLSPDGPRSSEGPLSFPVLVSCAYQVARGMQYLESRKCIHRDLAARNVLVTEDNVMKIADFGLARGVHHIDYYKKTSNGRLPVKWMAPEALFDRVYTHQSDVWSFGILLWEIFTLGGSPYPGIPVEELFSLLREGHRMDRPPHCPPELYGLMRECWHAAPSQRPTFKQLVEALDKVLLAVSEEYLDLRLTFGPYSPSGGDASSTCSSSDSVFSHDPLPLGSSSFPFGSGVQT
A further data set deals with FGFR1 (Homo sapiens, UniProt P11362).
Chain of FGFR1 (P11362 22-822): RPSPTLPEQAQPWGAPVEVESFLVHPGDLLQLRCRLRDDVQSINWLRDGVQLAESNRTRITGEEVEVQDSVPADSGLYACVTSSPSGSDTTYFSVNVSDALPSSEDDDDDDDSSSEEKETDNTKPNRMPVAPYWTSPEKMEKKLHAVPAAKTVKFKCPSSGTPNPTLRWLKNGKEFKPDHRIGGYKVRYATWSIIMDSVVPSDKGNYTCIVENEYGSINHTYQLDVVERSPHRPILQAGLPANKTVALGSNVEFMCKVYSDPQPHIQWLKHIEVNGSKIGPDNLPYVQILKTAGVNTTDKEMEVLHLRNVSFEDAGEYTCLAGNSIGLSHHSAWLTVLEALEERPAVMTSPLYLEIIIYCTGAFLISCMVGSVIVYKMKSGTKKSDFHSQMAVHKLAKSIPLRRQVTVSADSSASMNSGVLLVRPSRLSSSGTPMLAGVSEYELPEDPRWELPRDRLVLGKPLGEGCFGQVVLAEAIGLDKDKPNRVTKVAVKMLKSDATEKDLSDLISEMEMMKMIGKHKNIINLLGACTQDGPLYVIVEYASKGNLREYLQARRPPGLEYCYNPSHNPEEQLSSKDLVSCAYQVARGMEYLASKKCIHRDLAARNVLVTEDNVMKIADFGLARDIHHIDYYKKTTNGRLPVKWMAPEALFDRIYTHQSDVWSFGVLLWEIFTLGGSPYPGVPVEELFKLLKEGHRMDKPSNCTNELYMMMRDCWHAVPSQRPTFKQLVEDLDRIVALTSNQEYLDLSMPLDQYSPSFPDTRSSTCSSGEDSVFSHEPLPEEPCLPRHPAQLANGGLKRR
In another data set the target is FGFR2 (Homo sapiens, UniProt P21802).
Chain of FGFR2 (P21802 22-821): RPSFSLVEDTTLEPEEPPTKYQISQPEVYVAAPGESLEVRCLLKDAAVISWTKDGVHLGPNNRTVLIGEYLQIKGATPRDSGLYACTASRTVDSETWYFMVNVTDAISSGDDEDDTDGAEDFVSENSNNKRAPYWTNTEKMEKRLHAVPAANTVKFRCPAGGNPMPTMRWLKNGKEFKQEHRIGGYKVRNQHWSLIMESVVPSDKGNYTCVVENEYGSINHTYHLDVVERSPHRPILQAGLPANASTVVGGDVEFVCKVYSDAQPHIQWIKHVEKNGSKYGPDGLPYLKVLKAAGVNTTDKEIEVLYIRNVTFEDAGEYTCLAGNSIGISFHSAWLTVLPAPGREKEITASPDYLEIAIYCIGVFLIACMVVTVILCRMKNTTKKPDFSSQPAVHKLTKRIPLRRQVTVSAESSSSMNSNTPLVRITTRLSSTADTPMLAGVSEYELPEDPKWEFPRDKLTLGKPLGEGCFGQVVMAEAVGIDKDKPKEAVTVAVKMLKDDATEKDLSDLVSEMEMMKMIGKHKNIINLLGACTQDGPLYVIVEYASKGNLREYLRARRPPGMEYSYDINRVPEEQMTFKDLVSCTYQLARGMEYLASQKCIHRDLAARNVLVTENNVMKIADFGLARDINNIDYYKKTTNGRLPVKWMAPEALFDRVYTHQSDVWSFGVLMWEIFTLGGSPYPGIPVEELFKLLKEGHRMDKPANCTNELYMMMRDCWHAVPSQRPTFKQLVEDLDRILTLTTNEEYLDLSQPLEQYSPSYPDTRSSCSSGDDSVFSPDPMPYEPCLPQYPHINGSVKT
The target in a further data set is FGFR3 (Homo sapiens, UniProt P22607).
Chain of FGFR3 (P22607 23-806): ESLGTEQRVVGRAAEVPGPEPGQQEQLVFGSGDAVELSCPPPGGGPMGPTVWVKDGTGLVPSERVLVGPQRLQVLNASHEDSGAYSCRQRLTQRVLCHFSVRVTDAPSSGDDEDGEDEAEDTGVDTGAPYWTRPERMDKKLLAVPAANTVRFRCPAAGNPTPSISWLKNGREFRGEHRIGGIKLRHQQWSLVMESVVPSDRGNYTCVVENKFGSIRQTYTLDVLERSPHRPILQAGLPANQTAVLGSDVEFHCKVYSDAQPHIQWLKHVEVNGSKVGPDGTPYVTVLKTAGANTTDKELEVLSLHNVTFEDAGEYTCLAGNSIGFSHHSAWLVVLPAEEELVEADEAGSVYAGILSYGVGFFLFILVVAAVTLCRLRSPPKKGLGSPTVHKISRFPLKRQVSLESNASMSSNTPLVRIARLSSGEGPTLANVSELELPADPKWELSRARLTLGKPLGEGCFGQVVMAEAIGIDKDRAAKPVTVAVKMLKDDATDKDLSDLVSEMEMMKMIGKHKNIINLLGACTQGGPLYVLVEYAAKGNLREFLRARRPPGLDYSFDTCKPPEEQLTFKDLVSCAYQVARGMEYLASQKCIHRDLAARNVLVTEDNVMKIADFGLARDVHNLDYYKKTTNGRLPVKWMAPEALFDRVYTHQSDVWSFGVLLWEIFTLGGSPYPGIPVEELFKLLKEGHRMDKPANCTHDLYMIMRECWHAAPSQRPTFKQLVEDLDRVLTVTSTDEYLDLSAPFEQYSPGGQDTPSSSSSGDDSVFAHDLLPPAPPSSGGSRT

Chain of VEGFR2 (P35968 20-1356, species assumed): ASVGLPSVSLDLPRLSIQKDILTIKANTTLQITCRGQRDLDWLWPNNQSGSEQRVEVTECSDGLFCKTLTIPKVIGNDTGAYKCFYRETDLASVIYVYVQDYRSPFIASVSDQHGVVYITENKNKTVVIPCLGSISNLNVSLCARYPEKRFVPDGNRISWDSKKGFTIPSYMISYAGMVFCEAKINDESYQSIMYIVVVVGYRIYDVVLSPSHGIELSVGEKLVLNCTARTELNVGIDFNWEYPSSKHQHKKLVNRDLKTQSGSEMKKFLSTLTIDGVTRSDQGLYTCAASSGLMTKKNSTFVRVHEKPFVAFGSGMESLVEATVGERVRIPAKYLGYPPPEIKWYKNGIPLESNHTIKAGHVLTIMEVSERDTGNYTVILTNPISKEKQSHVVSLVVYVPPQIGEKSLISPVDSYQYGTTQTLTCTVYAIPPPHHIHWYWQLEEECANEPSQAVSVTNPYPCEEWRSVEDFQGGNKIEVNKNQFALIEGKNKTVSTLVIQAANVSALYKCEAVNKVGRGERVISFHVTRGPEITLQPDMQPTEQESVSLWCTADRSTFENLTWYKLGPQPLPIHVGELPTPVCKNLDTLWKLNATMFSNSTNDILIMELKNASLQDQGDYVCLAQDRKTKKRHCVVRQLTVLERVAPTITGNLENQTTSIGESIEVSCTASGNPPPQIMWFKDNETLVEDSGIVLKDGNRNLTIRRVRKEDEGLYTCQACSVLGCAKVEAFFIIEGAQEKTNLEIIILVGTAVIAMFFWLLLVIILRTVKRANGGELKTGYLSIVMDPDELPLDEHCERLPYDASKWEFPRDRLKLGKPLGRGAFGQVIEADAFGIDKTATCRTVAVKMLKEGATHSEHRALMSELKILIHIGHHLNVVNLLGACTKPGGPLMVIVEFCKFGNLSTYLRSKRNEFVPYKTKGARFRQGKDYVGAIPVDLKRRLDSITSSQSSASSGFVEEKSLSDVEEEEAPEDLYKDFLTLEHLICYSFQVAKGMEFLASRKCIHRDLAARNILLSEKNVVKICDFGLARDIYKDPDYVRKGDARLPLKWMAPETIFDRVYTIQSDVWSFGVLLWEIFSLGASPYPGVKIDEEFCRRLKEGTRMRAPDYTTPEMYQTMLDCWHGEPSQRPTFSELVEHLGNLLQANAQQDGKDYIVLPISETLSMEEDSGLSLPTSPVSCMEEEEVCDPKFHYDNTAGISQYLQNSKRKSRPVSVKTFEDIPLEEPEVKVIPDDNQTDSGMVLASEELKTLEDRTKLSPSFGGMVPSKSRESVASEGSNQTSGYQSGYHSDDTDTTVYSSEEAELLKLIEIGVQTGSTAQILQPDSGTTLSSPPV

For the compound `CCN1CCN(c2ccc(Nc3cc(N(C)C(=O)Nc4c(Cl)c(OC)cc(OC)c4Cl)ncn3)cc2)CC1` [infigratinib], the confirmed partial responses result in data set [1] was “six”. Consider `CCN(CC)CCCCNc1ncc2cc(-c3cc(OC)cc(OC)c3)c(NC(=O)NC(C)(C)C)nc2n1` [PD173074], for which the IC50 at VEGFR2 is 100 to 200 nM. `CNC(=O)c1cccc2cc(Oc3ccnc(NC(=O)c4ccc(N5CCN(CCO)CC5)cc4)c3)ccc12` [SOMCL-085]: the IC50 at FGFR4 (read-out: IC50, FGFR4) is 320 nM. Consider `C=CC(=O)Nc1ccc(CN2C(=O)N(c3cc(OC)cc(OC)c3)Cc3cnc(Nc4ccc(N5CCN(C)CC5)cc4)nc32)cc1` [FIIN-2], for which the IC50 is 45.3 nM on FGFR4 (read-out: IC50 for FGFR4), 3.09 nM on FGFR1, 4.3 nM at FGFR2 and 27 nM at FGFR3.
